Usually IC50 stands for the concentration that inhibits the measured activity by half. The term Kd denotes the free concentration of one partner at which half of the binding sites on the other are occupied at equilibrium, for simple one-to-one binding.

Where a name gives a salt, the structure may show the parent alone. Read-outs that look alike come from different tables or passages of the source.

The source of these data is patent US20260109709A1 (MIRATI THERAPEUTICS, INC., priority 2021, published 2026).

Assay [1] has as its target T1, PRMT5/MEP50 complex (Homo sapiens, UniProt O14744).
T1 construct: purchased Reaction Biology Corporation
The assay can be described thus: PRMT5:MEP50 FlashPlate Assay (histone H4 peptide methylation). It is filed as biochemical. The following applies: 40 nM H4 (1-15) peptide, 1 μM SAM. How it is done: The PRMT5 inhibitory activity of compounds of the present invention was determined using a PRMT5: MEP50 FlashPlate Assay and a PRMT5: MEP50 HotSpot Assay (Reaction Biology Corporation).
The assay uses purified human, PRMT5 enzyme to convert S-adenosyl-L-[methyl-3H]methionine plus histone H4 L-arginine to S-adenosyl-L-homocysteine plus histone H4 [methyl-3H]-L-arginine. The assay was carried out using Streptavidin-coated FlashPlates (Perkin Elmer), which contained a scintillant embedded in the plastic of the plate. The histone H4 peptide substrate was conjugated with biotin, which binds to the streptavidin-coated well of the plate, placing the H4 peptide in close proximity to the side well and the scintillant. The transfer of the tritiated methyl group from S-adenosyl-L-[methyl-3H]methionine to the bound histone H4 peptide generated a radiolabeled histone H4, which was quantitated by measuring in a scintillation counter to determine the activity of PRMT5 enzyme in the presence and absence of compound. […] Briefly, compounds of the present invention were solubilized in 100% DMSO at a highest concentration of 10 mM. […] Control samples lacking compound, PRMT5/MEP50 complex or various reaction components also were prepared and processed in parallel with compound test samples. SAH was used as a positive control for assay validation. To measure PRMT5 inhibitory activity, 3 nM PRMT5/MEP50 complex (Reaction Biology Corporation) was preincubated with test compound in assay buffer containing 40 nM histone H4 peptide (amino acids 1-15)-Biotin conjugate for 20 min at room temperature. The enzymatic reaction was initiated by adding 1 μM tritiated S-adenosyl methionine (final concentration) and the reaction is allowed to proceed for 20 min. The reaction was stopped and the amount of bound, tritiated H4 peptide in each sample was determined using a scintillation counter.

Assay [2] has as its target T2, PRMT5-MEP50 (Homo sapiens, UniProt O14744).
T2 construct: biotin (in vivo biotinylated)
The assay can be described thus: SPR binding assay (PRMT5.MTA and PRMT5·SAM surfaces). The following applies: steady-state fit. As for the experimental part:
In vivo biotinylated PRMT5-MEP50 was diluted to […] in 25 mM Bicine pH 7.6, 100 mM NaCl, 1 mM TCEP, and 0.05% Tween-20 and injected at 5 μl/min flow rate into flow cell 2 (FC2) of a Series S Sensor Chip SA (Cytiva) in a Biacore T200 or in a Biacore 8K plus (Cytiva). SPR screening was performed in MTA running buffer (25 mM Bicine pH 7.6, 100 mM NaCl, 1 mM TCEP, 20 µM MTA, 0.05% Tween-20 and 2% DMSO). The biotinylated PRMT5-MEP50 surface was equilibrated with MTA running buffer for 12 hours prior to the start. […] Subsequently, compound titration was repeated in SAM-running buffer (25 mM Bicine pH 7.6, 100 mM NaCl, 1 mM TCEP, 20 μM SAM, 0.05% Tween-20, and 2% DMSO). […] After double referencing, the steady-state response was extracted for each fragment concentration and was fit to the Langmuir isotherm equation to determine the equilibrium dissociation constant (KD).

Setting [3] is: PRMT5·SAM surface, SAM running buffer (20 μM SAM), read-out: KD SAM.
The mark [4] stands for this setting: PRMT5.MTA surface, MTA running buffer (20 µM MTA), read-out: KD MTA.

T1 sequence (O14744 2-637 limits assumed): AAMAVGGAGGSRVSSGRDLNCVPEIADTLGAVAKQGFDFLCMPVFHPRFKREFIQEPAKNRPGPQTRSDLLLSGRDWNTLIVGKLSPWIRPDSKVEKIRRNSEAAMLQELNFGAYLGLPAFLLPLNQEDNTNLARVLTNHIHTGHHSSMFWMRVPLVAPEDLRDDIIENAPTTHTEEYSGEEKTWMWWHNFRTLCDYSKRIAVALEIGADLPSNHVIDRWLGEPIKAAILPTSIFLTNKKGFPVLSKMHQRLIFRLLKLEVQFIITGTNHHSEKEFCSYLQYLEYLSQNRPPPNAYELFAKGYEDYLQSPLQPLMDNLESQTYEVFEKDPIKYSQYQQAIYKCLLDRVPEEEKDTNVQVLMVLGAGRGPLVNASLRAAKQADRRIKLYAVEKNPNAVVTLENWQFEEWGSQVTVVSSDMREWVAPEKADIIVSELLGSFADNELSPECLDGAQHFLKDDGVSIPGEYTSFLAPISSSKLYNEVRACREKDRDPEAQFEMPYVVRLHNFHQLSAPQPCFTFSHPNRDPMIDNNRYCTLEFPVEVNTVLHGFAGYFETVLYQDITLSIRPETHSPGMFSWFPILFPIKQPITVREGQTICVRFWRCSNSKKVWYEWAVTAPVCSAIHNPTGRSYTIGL
T1 sequence (Q9BQA1 2-342 partner limits assumed): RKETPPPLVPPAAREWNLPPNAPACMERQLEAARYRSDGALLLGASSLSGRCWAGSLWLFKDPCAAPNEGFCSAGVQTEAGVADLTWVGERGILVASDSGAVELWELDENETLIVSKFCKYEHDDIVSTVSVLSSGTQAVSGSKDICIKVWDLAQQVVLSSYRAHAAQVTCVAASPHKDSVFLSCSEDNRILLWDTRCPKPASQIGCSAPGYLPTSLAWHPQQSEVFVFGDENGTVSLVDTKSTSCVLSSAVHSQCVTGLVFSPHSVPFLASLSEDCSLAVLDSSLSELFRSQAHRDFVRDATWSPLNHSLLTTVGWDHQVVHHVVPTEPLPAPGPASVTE
T2 sequence (O14744 whole entry): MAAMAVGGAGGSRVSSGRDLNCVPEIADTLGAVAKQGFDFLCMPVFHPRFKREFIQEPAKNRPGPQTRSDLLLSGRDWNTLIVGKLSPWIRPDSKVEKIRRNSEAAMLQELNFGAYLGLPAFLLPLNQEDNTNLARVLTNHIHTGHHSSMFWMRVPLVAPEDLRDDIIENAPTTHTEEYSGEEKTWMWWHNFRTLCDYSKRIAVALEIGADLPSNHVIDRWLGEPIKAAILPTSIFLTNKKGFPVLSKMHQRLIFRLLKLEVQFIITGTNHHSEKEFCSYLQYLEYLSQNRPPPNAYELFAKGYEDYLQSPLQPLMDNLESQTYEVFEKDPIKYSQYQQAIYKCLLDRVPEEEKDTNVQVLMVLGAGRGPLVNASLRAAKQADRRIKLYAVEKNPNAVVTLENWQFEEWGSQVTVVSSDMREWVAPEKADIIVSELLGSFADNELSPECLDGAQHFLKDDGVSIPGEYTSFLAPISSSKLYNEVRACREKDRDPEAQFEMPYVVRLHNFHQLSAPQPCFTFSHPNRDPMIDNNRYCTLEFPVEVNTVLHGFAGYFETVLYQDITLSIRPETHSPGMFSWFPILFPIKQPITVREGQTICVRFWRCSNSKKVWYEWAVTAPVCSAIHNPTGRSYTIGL
T2 sequence (Q9BQA1 whole entry partner): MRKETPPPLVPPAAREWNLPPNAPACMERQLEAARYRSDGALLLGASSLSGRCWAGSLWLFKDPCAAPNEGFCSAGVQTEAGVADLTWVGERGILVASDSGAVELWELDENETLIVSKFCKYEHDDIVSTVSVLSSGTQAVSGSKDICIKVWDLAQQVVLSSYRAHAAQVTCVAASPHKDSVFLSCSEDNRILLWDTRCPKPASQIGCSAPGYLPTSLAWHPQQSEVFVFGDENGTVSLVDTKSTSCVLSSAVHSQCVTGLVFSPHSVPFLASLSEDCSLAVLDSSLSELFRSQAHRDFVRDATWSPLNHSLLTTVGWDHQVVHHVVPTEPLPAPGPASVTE

For the molecule `Nc1nc2ncccc2n1Cc1ccccc1` [Example 5-2, 1-benzylimidazo[4,5-b]pyridin-2-amine hydrochloride], the concentration for half-maximal inhibition (IC50) in assay [1] (IC50 + 2 μM MTA, plus 2 μM MTA) was 76.2 µM; in assay [1] (absence of MTA, read-out: IC50) it was more than 300 µM. Further, the Kd in assay [2] (setting [3]) was 176 µM.
In the case of `Cn1ncc(-c2cc(Cl)cc3c2nc(N)n3C)c1-c1ccccc1C#N` [Example 6-1, 2-[4-(2-amino-6-chloro-1-methyl-benzimidazol-4-yl)-2-methyl-pyrazol-3-yl]benzonitrile], the IC50 in assay [1] (IC50 + 2 μM MTA, plus 2 μM MTA) is 14 µM; in assay [1] (absence of MTA, read-out: IC50), more than 300 µM. Also, the Kd in assay [2] (setting [4]) is 0.322 µM; in assay [2] (setting [3]), 0.816 µM.
Consider `Cc1cc(-c2cnn(C)c2-c2ccccc2C#N)c2nc(N)n(C)c2c1` [Example 6-2, 2-[4-(2-amino-1,6-dimethyl-benzimidazol-4-yl)-2-methyl-pyrazol-3-yl]benzonitrile hydrochloride], for which the IC50 in assay [1] (IC50 + 2 μM MTA, plus 2 μM MTA) is 29.3 µM; in assay [1] (absence of MTA, read-out: IC50), more than 300 µM. Further, the Kd in assay [2] (setting [4]) came out at 0.047 µM.
